Measured values taken from patent publication US7459481B2, “Stimulation of CPT-1 as a means to reduce weight” (The Johns Hopkins University School of Medicine Licensing …, priority 2002, dated 2008).
“And” between values parts separate entries of the source, which are not always exact repeats. Identical values can stand only once.

Columns and labels:
[1] = target: T1, CPT-1 (Homo sapiens, UniProt P50416); test: CPT-1 activity assay in MCF-7 cells; format: cell-based; details: for CPT-1 activity, % of control: FIG. 4; for CPT-1 Stimulation (% Control): cells preincubated 2 hours
T1 construct: endogenous in cells; host or cells: MCF-7 human breast cancer cells
T1 sequence (P50416 1-773): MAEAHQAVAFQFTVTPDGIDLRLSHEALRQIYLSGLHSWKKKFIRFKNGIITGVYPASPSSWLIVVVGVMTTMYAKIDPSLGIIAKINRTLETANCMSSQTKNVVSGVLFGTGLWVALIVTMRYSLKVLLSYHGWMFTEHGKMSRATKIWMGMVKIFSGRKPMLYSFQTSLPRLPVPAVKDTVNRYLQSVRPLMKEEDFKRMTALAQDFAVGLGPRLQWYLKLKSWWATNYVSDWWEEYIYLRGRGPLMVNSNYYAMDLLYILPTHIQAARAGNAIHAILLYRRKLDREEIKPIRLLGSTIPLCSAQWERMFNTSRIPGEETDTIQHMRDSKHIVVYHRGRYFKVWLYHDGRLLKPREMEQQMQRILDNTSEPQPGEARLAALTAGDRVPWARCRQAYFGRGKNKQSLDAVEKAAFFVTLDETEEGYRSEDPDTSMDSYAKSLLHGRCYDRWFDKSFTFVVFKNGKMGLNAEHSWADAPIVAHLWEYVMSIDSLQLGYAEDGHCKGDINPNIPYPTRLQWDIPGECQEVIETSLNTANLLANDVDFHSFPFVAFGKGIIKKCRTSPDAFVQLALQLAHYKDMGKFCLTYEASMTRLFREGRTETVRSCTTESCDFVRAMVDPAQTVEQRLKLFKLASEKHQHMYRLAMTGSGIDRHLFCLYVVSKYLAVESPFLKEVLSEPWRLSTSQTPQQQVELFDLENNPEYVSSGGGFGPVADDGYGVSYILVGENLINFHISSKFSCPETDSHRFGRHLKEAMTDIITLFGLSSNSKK
Experimental: CPT-1 activity was assayed in MCF-7 cells by the following published procedure: MCF-7 cells were plated in DMEM with 10% fetal bovine serum at 10^6 cells in 24-well plates in triplicate. Following overnight incubation at 37° C., the medium was removed and replaced with 700 μl of assay medium consisting of: 50 mM imidazole, 70 mM KCl, 80 mM sucrose, 1 mM EGTA, 2 mM MgCl2, 1 mM DTT, 1 mM KCN, 1 mM ATP, 0.1% fatty acid free bovine serum albumin, 70 μM palmitoyl-CoA, 0.25 μCi [methyl-^14C]L-carnitine, 40 μg digitonin with or without 20 μM malonyl-CoA. After incubation for 6 minutes at 37° C., the reaction was stopped by the addition of 500 μl of ice-cold 4 M perchloric acid. Cells were then harvested and centrifuged at 13,000×g for 5 min. The pellet was washed with 500 μl ice cold 2 mM perchloric acid and centrifuged again. The resulting pellet was resuspended in 800 μl dH2O and extracted with 150 μl of butanol. The butanol phase was counted by liquid scintillation and represents the acylcarnitine derivative.
MCF-7 cells were treated with C75 at 10 or 20 μg/mL for 1 hr before CPT-1 activity was assayed. The assay was performed with the C75 and malonyl-CoA concentrations indicated (“M” indicates malonyl-CoA at 20 uM). Malonyl-CoA treatment alone caused a 46% reduction in CPT-1 activity similar to the previous experiment (see FIG. 2; p=0.02, two-tailed t-test, Prism 3.0). The level of malonyl-CoA inhibition of the CPT-1 activity is consistent with the activity of the liver isoform of CPT-1 in MCF-7 cells. The Ki of malonyl-CoA for the liver isoform of CPT-1 is ˜7 μM while the Ki for the muscle isoform of CPT-1 is 0.07 μM. Thus, MCF-7 cells express predominantly the liver isoform of CPT-1 (consistent with the immunoblot analysis).
(§1) FAS activity was measured by monitoring the malonyl-CoA dependent oxidation of NADPH spectrophotometrically at OD340 in 96-well plates, as described in International Patent Publication WO 2004/005277. The IC50 for the compounds against FAS was determined by plotting the change in OD340 against time for each inhibitor concentration tested and determining the rate of change by linear regression. The concentration of a particular compound yielding 50% inhibition of the rate for FAS in the absence of the compound is the IC50. Stimulation of CPT-1 activity was measured as described in Example 2, except the cells were preincubated with the compound for 2 hours at the concentrations indicated in the table. Stimulation of Fatty acid oxidation was determined as described in Example 1 for cells preincubated with the compounds at the concentrations indicated in the table.

[2] = tested on: MCF-7 cells; test: Fatty acid oxidation ([1-14C]palmitate to 14CO2) in MCF-7 cells; format: cell-based, human
Experimental: Human breast cancer cell line MCF-7 was obtained from the American Type Culture Collection. 1×10^6 MCF-7 cells were plated in T-25 flasks in triplicate and incubated overnight at 37° C. Drugs were then added as indicated diluted from 5 mg/ml stock in DMSO. After 2 hours, medium with drugs was removed and cells were preincubated for 30 min. with 1.5 ml of the following buffer: 114 mM NaCl, 4.7 mM KCl, 1.2 mM KH2PO4, 1.2 mM MgSO4, glucose 11 mM. After preincubation, 200 μl of assay buffer was added containing: 114 mM NaCl, 4.7 mM KCl, 1.2 mM KH2PO4, 1.2 mM MgSO4, glucose 11 mM, 2.5 mM palmitate (containing with 10 μCi of [1-^14C]palmitate) bound to albumin, 0.8 mM L-carnitine, and cells were incubated at 37° C. for 2 h. Following the incubation, 400 μl of benzethonium hydrochloride was added to the center well to collect released ^14CO2. Immediately, the reaction was stopped by adding 500 μl of 7% perchloric acid to the cells. The flasks with wells were then incubated for 2 h at 37° C. after which the benzothonium hydrochloride was removed and counted for ^14C. Blanks were prepared by adding 500 μl of 7% perchloric acid to the cells prior to the incubation with the assay buffer for 2 h.
as §1

[3] = target: FAS (Homo sapiens, UniProt P49327); test: FAS activity, malonyl-CoA dependent oxidation of NADPH at OD340; format: biochemical; details: read-out: FAS Inhibition (IC50) (converted)
Chain of FAS (P49327 whole entry): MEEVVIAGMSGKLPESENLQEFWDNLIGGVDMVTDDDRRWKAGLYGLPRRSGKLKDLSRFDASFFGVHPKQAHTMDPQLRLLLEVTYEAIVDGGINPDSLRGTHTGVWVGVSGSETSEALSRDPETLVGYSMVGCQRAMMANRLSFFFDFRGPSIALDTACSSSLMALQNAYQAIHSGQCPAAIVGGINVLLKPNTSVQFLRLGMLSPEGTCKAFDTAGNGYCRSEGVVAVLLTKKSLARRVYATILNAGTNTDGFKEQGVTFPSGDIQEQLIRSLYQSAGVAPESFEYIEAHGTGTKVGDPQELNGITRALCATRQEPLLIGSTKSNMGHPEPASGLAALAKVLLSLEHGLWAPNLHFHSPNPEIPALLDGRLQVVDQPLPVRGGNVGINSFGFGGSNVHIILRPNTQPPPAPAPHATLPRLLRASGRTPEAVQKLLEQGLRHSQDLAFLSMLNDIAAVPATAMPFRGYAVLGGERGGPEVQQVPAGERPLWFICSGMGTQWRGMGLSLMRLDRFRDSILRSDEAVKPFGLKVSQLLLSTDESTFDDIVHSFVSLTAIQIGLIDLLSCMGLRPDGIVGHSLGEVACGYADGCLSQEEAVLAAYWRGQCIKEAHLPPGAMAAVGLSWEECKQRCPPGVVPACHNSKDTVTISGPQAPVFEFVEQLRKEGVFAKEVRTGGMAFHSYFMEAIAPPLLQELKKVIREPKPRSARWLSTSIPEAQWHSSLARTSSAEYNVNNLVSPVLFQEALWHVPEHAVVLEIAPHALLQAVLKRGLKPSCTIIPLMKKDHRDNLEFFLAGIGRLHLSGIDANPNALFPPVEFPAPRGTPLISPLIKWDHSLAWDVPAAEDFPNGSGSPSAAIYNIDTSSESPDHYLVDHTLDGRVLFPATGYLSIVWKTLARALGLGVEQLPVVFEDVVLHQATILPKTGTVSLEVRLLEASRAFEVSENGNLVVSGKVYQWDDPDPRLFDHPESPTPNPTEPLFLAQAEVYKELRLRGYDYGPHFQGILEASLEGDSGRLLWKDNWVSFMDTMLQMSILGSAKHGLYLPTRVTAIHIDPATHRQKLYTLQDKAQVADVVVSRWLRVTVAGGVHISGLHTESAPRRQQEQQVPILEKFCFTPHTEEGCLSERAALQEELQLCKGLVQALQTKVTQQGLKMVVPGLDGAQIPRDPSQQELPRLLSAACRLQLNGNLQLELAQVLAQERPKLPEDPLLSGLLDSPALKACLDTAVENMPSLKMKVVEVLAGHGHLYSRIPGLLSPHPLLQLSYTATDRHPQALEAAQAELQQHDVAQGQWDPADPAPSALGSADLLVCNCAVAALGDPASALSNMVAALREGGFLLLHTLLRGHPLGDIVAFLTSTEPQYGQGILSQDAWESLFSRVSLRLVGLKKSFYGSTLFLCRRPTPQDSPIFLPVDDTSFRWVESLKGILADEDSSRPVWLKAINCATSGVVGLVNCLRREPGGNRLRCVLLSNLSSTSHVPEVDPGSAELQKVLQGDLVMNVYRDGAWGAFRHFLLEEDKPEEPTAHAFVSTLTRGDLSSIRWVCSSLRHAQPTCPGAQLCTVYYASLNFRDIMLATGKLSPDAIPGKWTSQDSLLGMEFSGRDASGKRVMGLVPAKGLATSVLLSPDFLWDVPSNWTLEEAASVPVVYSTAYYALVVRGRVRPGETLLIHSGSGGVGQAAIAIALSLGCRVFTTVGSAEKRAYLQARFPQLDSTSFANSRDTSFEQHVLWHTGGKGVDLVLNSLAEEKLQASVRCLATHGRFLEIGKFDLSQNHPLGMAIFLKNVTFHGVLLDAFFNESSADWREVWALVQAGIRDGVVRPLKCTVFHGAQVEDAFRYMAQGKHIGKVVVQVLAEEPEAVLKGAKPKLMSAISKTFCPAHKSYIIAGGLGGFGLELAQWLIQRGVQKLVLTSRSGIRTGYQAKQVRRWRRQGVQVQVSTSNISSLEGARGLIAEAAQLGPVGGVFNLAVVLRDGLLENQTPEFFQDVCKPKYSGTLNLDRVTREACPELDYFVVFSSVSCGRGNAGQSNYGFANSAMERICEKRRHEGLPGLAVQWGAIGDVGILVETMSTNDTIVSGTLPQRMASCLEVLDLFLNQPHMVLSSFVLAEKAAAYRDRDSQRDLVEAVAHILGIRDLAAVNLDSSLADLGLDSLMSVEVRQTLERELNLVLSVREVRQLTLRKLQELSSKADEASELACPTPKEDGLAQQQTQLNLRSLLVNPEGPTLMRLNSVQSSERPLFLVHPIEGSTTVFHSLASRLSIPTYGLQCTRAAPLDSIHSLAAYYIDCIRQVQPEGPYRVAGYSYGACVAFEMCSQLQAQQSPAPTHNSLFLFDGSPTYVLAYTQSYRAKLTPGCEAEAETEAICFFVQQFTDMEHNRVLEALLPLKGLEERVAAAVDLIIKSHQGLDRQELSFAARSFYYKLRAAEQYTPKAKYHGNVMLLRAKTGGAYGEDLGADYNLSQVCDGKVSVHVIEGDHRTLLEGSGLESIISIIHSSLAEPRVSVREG
Experimental: as §1

[4] = tested on: MCF-7 cells; details: literature; cited from earlier work
[5] = tested on: MCF-7 cells; details: cited from earlier work
[6] = target: T2, liver isoform of CPT-1 (Homo sapiens, UniProt P50416); details: cited from earlier work
T2 sequence (P50416 1-773): T1 sequence (P50416 1-773)

[7] = target: T3, muscle isoform of CPT-1 (Homo sapiens, UniProt Q92523); details: cited from earlier work
T3 sequence (Q92523 1-772): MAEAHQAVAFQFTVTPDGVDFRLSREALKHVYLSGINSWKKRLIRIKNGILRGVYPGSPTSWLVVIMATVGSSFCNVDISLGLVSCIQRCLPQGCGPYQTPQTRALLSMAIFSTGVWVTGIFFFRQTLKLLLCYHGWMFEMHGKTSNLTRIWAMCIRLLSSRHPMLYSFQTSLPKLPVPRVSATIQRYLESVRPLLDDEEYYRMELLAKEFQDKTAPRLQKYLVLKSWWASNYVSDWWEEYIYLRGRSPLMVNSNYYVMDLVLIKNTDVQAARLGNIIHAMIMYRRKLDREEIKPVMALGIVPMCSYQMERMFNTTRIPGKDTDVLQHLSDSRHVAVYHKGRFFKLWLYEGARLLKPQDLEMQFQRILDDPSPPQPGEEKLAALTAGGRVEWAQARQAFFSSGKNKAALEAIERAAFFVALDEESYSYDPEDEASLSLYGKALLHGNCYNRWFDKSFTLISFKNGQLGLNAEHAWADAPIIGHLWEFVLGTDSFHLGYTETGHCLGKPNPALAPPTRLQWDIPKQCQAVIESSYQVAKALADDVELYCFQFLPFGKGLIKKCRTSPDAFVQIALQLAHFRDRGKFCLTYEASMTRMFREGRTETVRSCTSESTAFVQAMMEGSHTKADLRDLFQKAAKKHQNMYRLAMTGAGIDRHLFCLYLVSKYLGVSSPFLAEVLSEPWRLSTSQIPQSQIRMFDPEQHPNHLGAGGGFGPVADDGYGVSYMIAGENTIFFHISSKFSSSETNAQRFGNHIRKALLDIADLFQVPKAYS

[8] = MCF-7, 20 μg/ml 1 hr before assay

Compound: C=C1C(=O)OC(CCCCCCCCCCCCCCCC)C1C(=O)O (centres unmarked) [Compound C16]
- CPT-1 activity, % of control [1, 8]: 138 % of control

Compound: CCCCCCCC[C@]1(C)SC(=O)C=C1OC(=O)OCC (racemic)
- Fatty Acid Oxidation (% Control) ([2]; 10 μg/mL): 140 % Control
- CPT-1 Stimulation (% Control) ([1]; 20 μg/mL): 150 % Control
- IC50 [3]: 14.6 µM

Compound: CCOC(=O)[C@@]1(CCCCCCOc2ccc(Cl)cc2)CO1 [Etomoxir, reference compound]
- fatty acid oxidation, % of control ([2]; MCF-7, FIG. 1): 32 % of control

Compound: C/C=C/C/C=C/CCC(=O)[C@H]1O[C@H]1C(N)=O [Cerulenin, reference compound]
- effect on fatty acid oxidation [4]: inhibition of fatty acid oxidation
- effect on malonyl-CoA amount [5]: increases

Compound: C=C1C(=O)OC(CCCCCCCCCCCC)C1C(=O)O (centres unmarked) [Compound C12]
- CPT-1 activity, % of control [1, 8]: 186 % of control

Compound: CC(C)(COP(=O)(O)OP(=O)(O)OC[C@H]1O[C@@H](n2cnc3c(N)ncnc32)[C@H](O)[C@@H]1OP(=O)(O)O)[C@@H](O)C(=O)NCCC(=O)NCCSC(=O)CC(=O)O [Malonyl-CoA, reference compound]
- CPT-1 activity, % of control ([1]; MCF-7, 20 μM in reaction buffer): 64 % of control
- reduction (inhibition) of CPT-1 activity ([1]; malonyl-CoA alone at 20 μM in the assay, MCF-7): 46% and ~70%
- Ki [6]: ~7 µM
- Ki [7]: 0.07 µM

Compound: C=C1C(=O)O[C@@H](CCCCCCCC)[C@@H]1C(=O)NCC(=O)O (racemic)
- Fatty Acid Oxidation (% Control) ([2]; 40 μg/mL): 500 % Control
- CPT-1 Stimulation (% Control) ([1]; 80 μg/mL): 500 % Control
- IC50 [3]: 167 µM

Compound: C=CCNC(=O)[C@@H]1C(=C)C(=O)O[C@H]1CCCCCCCC (racemic)
- Fatty Acid Oxidation (% Control) ([2]; 0.625 μg/mL): 400 % Control
- CPT-1 Stimulation (% Control) ([1]; 10 μg/mL): 400 % Control
- IC50 [3]: 163 µM

Compound: C=CCC1(CC=C)C(=O)S[C@@](C)(CCCCCCCC)C1=O (racemic)
- Fatty Acid Oxidation (% Control) ([2]; 10 μg/mL): 175 % Control
- CPT-1 Stimulation (% Control) ([1]; 20 μg/mL): 175 % Control
